# Legend:
# MCP protein = MCP protein (Human cytomegalovirus, UniProt P16729); details: increasing concentrations of peptide (0.1 to 10 μg), FIG. 2
# Experimental: To investigate the interaction between the UL80.5 peptide and MCP, an ELISA assay was developed. For this purpose, a 96 well microtiter plate (Nunc—Immuno Maxisorp) was coated with 100 μl per well of a 1/50 dilution (in carbonate buffer: 40 mM NaCO3, 36 mM NaHCO3, 3mM Na Azide pH 9.6) of recombinant baculovirus supernatant containing MCP (prepared as described above). The plate was incubated at 37° C. for 2 hours. The plate was then washed 4-5 times in 200 μl per well of PBS (1.37 M NaCl, 80 mM Na2HPO4, 26.8 KCl, 14.7 mM KH2PO4, pH 7.0) containing 0.2 % Triton X-100, followed by incubation with 0.1 μg of UL80.5 peptide (SEQ ID NO:3) diluted in carbonate buffer for 1 hour at 37° C. The plate was then washed to remove any unbound peptide, and subsequent nonspecific binding blocked by the addition of 200 μl of 1% casein block (Pierce; Rockford, Ill.) 3 times for 30 seconds each at room temperature. The plate was washed as before, and 200 μl of a primary antipeptide antibody (prepared as described above) diluted 1/5000 in wash buffer (PBS containing 0.2% Triton X-100) was added and incubated for 1 hour at room temperature. […] Following a 30 minute room temperature incubation in the dark, the plate was read at 450 nm on a microtiter plate reader. […]
# [1] = target: T1, UL80.5 gene product/MCP interaction (Human cytomegalovirus, UniProt P16729); test: competitive binding assay (ELISA): inhibition of UL80.5 gene product/MCP interaction; design: species or system CMV; details: 0.1 μg of UL80.5 peptide; compound 0.4 to 50 μM; average of six independent experiments (FIG. 3); read-out: average IC50 (concentration at which binding is reduced by 50%)
# T1 construct: Recombinant baculovirus Autographa californiica nuclear polyhedrosis virus expressing full-length CMV MCP; made in house; host or cells: Sf9 insect cells infected with recombinant baculovirus; crude clarified supernatant used for coating
# Experimental: Inhibitor activity was detected using a competitive binding assay. Scaffolding polypeptide and the compound to be tested are added sequentially or simultaneously to a microtiter plate precoated with full-length MCP. A primary antibody specific for the scaffolding polypeptide is then added, followed by a labeled secondary antibody directed against the primary antibody, and signal from the label measured. If the compound is unable to compete for binding, then the peptide binds to MCP and a signal is detected. […] In all assays a background control is included in which no peptide is added, but all other reagents are identical. In addition, a set of samples in which no compound is added is also included. This value is set at 100% and the percent inhibition is calculated relative to this number. […]
# In order to determine if potential inhibitors of UL80.5 gene product/MCP interaction could be detected with this assay, compounds were assayed for activity.
# In order to assay for inhibitors in a high throughput manner, the ELISA assay described above was modified. […] The plates were washed 6 times, and 50 μl of Wallac enhancement solution (Wallac; Gaithersburg, Md.) added, and the plate shaken for 10 minutes, before being read on a Wallac VICTOR microtiter plate reader (Wallac; Gaithersburg, Md.).
Compound,concentration of peptide at which 50% binding to MCP occurred (MCP protein),IC50 [1]
NH2-Ala-Ser-Gln-Ser-Pro-Pro-Lys-Asp-Met-Val-Asp-Leu-Asn-Arg-Arg-Ile-Phe-Val-Ala-Ala-Leu-Asn-Lys-Leu-Glu-COOH [UL80.5 peptide],0.3 µg,–
NCCc1c[nH]c2ccc(-c3ccc4ccccc4c3)cc12 [Target compound 6],–,4.2 µM

# From patent US20020004198A1, “Novel anti-infectives” (priority 1998, published 2002)
